Values of other authors in patent US20120322767A1, “FORMULATIONS OF BISPHOSPHONATES AND VITAMIN D SUIUTABLE FOR INTERMITTENT INTRAMUSCULAR AND SUBCUTANEOUS ADMINISTRATION” (priority 2009, published 2012).

Experiments:
[1] = humans, ratio of urinary or plasma concentrations (AUC) after intravenous and oral administration
[2] = man, oral, 100,000 IU, maintained for two months

O=P(O)(O)C(Cl)(Cl)P(=O)(O)O [clodronate]
Oral bioavailability [1]: 1-2%

vitamin D
Serum levels of calcidiol [2]: > 80 nM

CC(O)(P(=O)(O)O)P(=O)(O)O [etidronate]
Oral bioavailability [1]: 3-7%

NCCC(O)(P(=O)(O)O)P(=O)(O)O [pamidronate]
Oral bioavailability [1]: ~0.3%
